The text below walks through data of patent US6402037B1, “Two-photon upconverting dyes and applications” (The Research Foundation of State University of New York, priority 1995, dated 2002).

The term solubility denotes the dissolved amount per volume that the medium holds.

Marks after values point to notes of the source that are not given here.

Series [1] is described as follows: Decomposition temperature (Td) by DSC thermogram. In kind it is physicochemical. Conditions: DSC under nitrogen. On the procedure: Decomposition temperature (“Td”) of each dye was measured by differential scanning calorimetry (“DSC”) thermogram using a Shimadzu DSC-50GPC under nitrogen. Elemental: analysis were performed by Atlantic Microlab, Inc., P.O. Box 2288, Norcross, Ga. 30019. Proton NMR spectra, TV/visible absorption spectra, and UV/visible emission spectra were recorded using a Varian Gemini-300 300 MHz spectrometer, a Shimazdu UV-3101 PC spectrophotometer, and a Shimazdu RF5000U spectrofluorophotometer, respectively: TV/visible absorption spectra of dyes prepared in these Examples in DMF, are provided in FIG. 3.
(DSC measures the heat that a sample takes up or gives off during a temperature scan.)

A short description of series [2]: Optical characterization of the dye-doped composite glasses. The series is classed as physicochemical. Here is the method:
Emission spectra were collected on a Shimadzu RF-5000U Spectrofluorophotometer (90° geometry) having a resolution of ±2 nm. For solution state measurements, a fluorometric quartz cuvette was used. For the composite glass, the emission was obtained from the surface of the glass (90° geometry) due to significant primary absorption. […]

Series [3] can be described thus: Optical characterization of the solution state (ethanol). Conditions: for fluorescence quantum yield: vs Rhodamine-6G.
Protocol: Absorption spectra were obtained using a Shimadzu UV-Vis 260 spectrophotometer with a resolution of ±1 nm. The spectra of solution state were obtained using quartz cuvettes (1 cm path length) throughout.
In addition, the quantum yield was measured from the fluorescence data.
Series [4] in a line: Two-photon pumped cavity lasing of dye-doped matrices (1.06 μm pump).
Test in series [5]: as above
Here is the method: Two-photon pumped cavity lasing experiments were conducted using a Q-switched Nd-YAG pulsed laser source having a wavelength of 1.06 μm, a pulsewidth of about 10 ns, a spectral width of about 1 cm^−1, an angular divergence of about 1.3 mrad, and a variable repetition rate of 1-10 Hz. A 1 cm-long quartz cuvette filled with dye1 solution in cyclopentanone (do≈8×10^−2 to 4×10^−2M) and a 7 mm-long, dye1 -doped poly(HEMA) rod (do,≈8×10^−3 M), prepared in accordance with Example 12, were used separately for two-photon pumped (“TPP”) lasing observation. The 1.06 μm-pump laser beam was focused on the center of the cuvette or sample rod, and a strong orange-red fluorescence emission was observed when the infrared pump intensity reached several MW/cm^2. Once the pump intensity further increased to a certain threshold level, simultaneous forward and backward highly directional superradiation could be observed from the solution or rod samples. To achieve cavity lasing, two parallel plane dielectrc-coating mirrors were employed to form a cavity. The pump beam, focused through a f-10 cm lens, was coupled into the cavity by normal incidence. The reflectivity was r=10% at 1.06 μm and r=99% at 600 nm for the front mirror (input coupler) and r=10% at 1.06 μm and r=50% at 600 nm for the rear mirror (output coupler). The total cavity length was 7˜8 cm, and the cuvette or sample rod was located at the center of the cavity. […] FIGS. 11A-11C show the emission spectra of the same 7 mm-long, dye1 -doped rod sample under the following different excitation conditions: 532 nm one-photon excited fluorescence emission (FIG. 11A), 1.06 μm two-photon excited fluorescence emission (FIG. 11B), and 1.06 μm pumped cavity lasing (FIG. 11C). Each spectrum was obtained using a grating -spectrograph in conjunction with an optical multi-channel analyzer (OMA-III) system. The difference between FIGS. 11A and 11B can be explained by a volume reabsorption effect of the emission. To obtain these two spectra, the excitation beam was incident on the rod end at a +45° angle, and the fluorescence was measured at a −45° angle. In the case of FIG. 11A, the emission was mainly from a shallow surface layer of the sample because of the very short penetration depth of the 532 nm pump radiation, and therefore, the reabsorption effect within the sample can be neglected. However, for the case of FIG. 11B, the incident infrared beam could pass through the whole rod length without obvious depletion, and, consequently, collected fluorescence signals of different spectral components were propagated within the sample for a considerable distance. […] Cavity lasing occurred at the central region of the two-photon absorption (“TPA”) induced fluorescence band, but the lasing bandwidth (˜8 nm) was much narrower than the ordinary one-photon excited fluorescence band width (˜60 nm) due to the lasing threshold requirement. In addition, a red-shift of the central lasing wavelength was observed as the pump energy increased. This shift may be caused by the local temperature change of the sample rod.
Compared to the smooth temporal profile of the 10 ns pump pulse, the lasing pulses manifested much shorter rise- and fall-times, i.e. ≦1.5 ns limited by the resolution of the detecting system. […]
The lasing output/pump input characteristic curve is given in FIG. 13 for the rod cavity lasing. […] However, at this pump level the measured one-pass two-photon absorption in the 7 mm-long rod was only about 23%. […]
The source holds these as a separate data set.

Series [6] is described as follows: TPA induced fluorescence and optical limiting in dye1-doped epoxy. In kind it is physicochemical. The text has this:
Dye1, prepared in accordance with Example 6, was dispersed in an optical quality epoxy compound, EPO-TEX301 (Epoxy Technology, Inc., Billerica, Mass.) by dissolving the dye powder in the liquid Part A and Part B of the epoxy. Undoped and dye1-doped epoxies were cast by blade casting techniques. Film thickness was the same (0.3 mm) for both films, and the dopant concentration for the doped film was do=0.003 M.
A 2 cm-long, dye1-doped epoxy (EPO-TEX301) rod with a concentration of do=0.004M was used for TPA induced fluorescence and optical limiting measurements. An incident near infrared laser beam, having a wavelength of 1.06 μm, a pulsewidth of about 8 ns, a spectral width of about 1 cm^−1, and a repetition rate of 3 Hz, was provided by a Q-switched Nd-YAG pulsed laser source. The incident 1.06 μm radiation on the sample was a quasi-parallel laser beam of about 1 mm size with a nearly uniform transverse intensity distribution. An orange-red fluorescence emission was readily observed by the human eye in a dark room when the 1.06 μm incident beam intensity reached several MW/cm^2. […] Each data point was averaged over 10 laser pulses by using a gated integrator and boxcar averager. The solid line is the best fitted curve based on the square law that TPA processes follow.
where I(L) is the transmitted beam intensity, Io, is the incident beam intensity, L is the thickness of the sample, and β is the TPA coefficient of the sample medium. In the derivation of Equation (1), it is assumed that the linear attenuation of the medium can be neglected and the beam has a nearly uniform transverse intensity distribution within the medium. Using Equation (1), the value of β can be determined by measuring the transmitted intensity versus the incident intensity for a sample medium with a given L value. Furthermore, the TPA coefficient β (in units of cm/GW) of a given sample is determined by
Here, No is the molecular density of the dopant (in units of 1 cm^3), σ2 is the molecular TPA coefficient (or cross-section) of the same dopant (in units of cm^4/GW, do is the concentration of the dopant compound in the matrix (in units of M), and finally NA is Avogadro's number. For known β and do, the value of σ2 can be calculated from Equation (2). Another expression for molecular TPA coefficient (or cross-section), used in some reference papers, is
where hυ is the energy of an incident photon, and σ′2 has units of cm^4/photon/sec.
The measured transmitted intensity as a function of the incident intensity for the 2 cm-long, dye1-doped epoxy rod is shown in FIG. 9. Two groups of experimental data were obtained in two measurement cycles, and each data point was an average result over 10 laser pulses. In FIG. 9, the solid line is the theoretical curve predicted by Equation (1) using a best fit parameter of β=6 cm/GW, and the dashed line is similarly constructed by assuming that there is no TPA (β=0). Consequently, FIG. 9 evidences the TPA induced optical limiting behavior of dye1 at incident intensity levels of 50-250 MW/cm^2. Using a value of β=6 cm/GW and Equations (2) and (3), the values of molecular TPA cross-section of dye1 were estimated as σ2=2.5×10^−18 cm^4/GW and σ′2=4.7×10^−46 cm^4/photon/sec. These measured values of σ2 and σ2 for dye1 in EPO-TEX301 matrix are 2˜3 orders of magnitude greater than the corresponding values of Rhodamine dyes, as reported by Rapp et al., Chem. Phys. […] The damage threshold of the 2 cm-long, dye1-doped epoxy rod was measured as 250˜300 MW/cm^2.

Where [7] appears, read: cyclopentanone solution, 0.001 M.
The mark [8] stands for this setting: EPO-TEX301 matrix, 1.06 μm, from β.

As for `CCN(CCO)c1ccc(/C=C/c2cc[n+](CCO)cc2)cc1.[I-]` [ASPI, trans-4-[p-(N-ethyl-N-hydroxyethylamino)styryl]-N-hydroxyethylpyridinium iodide], the “Decomposition temperature (Td)” value in series [1] is 270 °C. In addition, the solubility in “Solubility” (ethanol, organic solvent or mixture) was 6.1 mM; in “Solubility” (in PMMA), “insolubility”; in “Solubility” (in methyl methacrylate monomer), “insolubility”. Besides, the “Florescence FWHM” value in series [2] (Composite Glass, single dye) is 45 nm; in series [3] (ethanol, same concentrations, excitation 509 nm), around 38 nm. The “Fluorescence Max.” value was 586 nm in series [2] (Composite Glass, single dye) and 600 nm in series [3] (ethanol, ASPI 3.1×10^−3 M, Rhodamine-6G 6.5×10^−5 M, excitation 509 nm). Besides, the “Florescence FWHM, ASPI emission” value in series [2] (composite glass containing both dyes) was determined as 41 nm. For the same compound, the “Fluorescence Max., ASPI emission” value in series [2] (composite glass containing both dyes, reconstructed peak) was 594 nm. Further, the fluorescence quantum yield in series [3] (1.8×10^−6 M, excited at 482 nm) is reported as 6×10^−3; in series [3] (2.6×10^−6 M, excited at 509 nm), 7×10^−3. Besides, in series [3] (Solution State, Table 2), the “Quantum Yield” value was 6.5 × 10^−3. The “Absorbance Max.” value in series [3] (ethanol) was determined as 483 nm. Also, in series [3] (ethanol), the “Stokes Shift” value turned out to be 118 nm. The compound also displayed a molar absorptivity in series [3] (ethanol, at 483 nm) of 68000 M⁻¹ cm⁻¹.
On to `CN(C)c1ccc(/C=C/c2cc[n+](C)cc2)cc1.c1ccc([B-](c2ccccc2)(c2ccccc2)c2ccccc2)cc1` [dye2, trans-4-[p-(N,N-dimethylamino)styryl]-N-methylpyridinium tetraphenyborate], for which the “Decomposition temperature (Td)” value in series [1] was 266 °C.
In series [4] (Vycor glass 0.0015M), `CCN(CCO)c1ccc(/C=C/c2cc[n+](C)cc2)cc1.c1ccc([B-](c2ccccc2)(c2ccccc2)c2ccccc2)cc1` [dye1, trans-4-[p-(N-ethyl-N-hydroxyethylamino)styryl]-N-methylpyridinium tetraphenyborate] returned an one-photon fluorescence bandwidth of 60 nm and an one-photon fluorescence peak of 575 nm. In series [4] (setting [7]), the absorption bandwidth was 100^a nm, the linear absorption peak is reported as 480^a nm, the one-photon fluorescence bandwidth was 58^a nm and the one-photon fluorescence peak is listed as 590^a nm. In series [4] (sol-gel glass 0.0015 M), this compound gave an one-photon fluorescence bandwidth of 55 nm and an one-photon fluorescence peak of 568 nm. In addition, the “Decomposition temperature (Td)” value in series [1] worked out at 264 °C. In series [5] (poly(HEMA) 0.008M), this compound displayed an absorption bandwidth of 80 nm, a linear absorption peak of 485 nm, an one-photon fluorescence bandwidth of 55 nm and an one-photon fluorescence peak of 577 nm. In addition, in series [5] (poly(HEMA) rod, 1.06 μm, from nonlinear absorption data), the “molecular TPA cross-section σ2” value is reported as “≈ 1.2×10^−46 cm^4-sec”. For the same compound, the “strong one-photon absorption range” value in series [6] (0.3 mm epoxy film, 0.003 M) is reported as 350˜560 nm. Besides, the “TPA coefficient β (best fit)” value in series [6] (2 cm EPO-TEX301 rod, 0.004M, 1.06 μm) was 6 cm/GW. Besides, in series [6] (EPO-TEX301 matrix), the “TPA cross-section greater than values of Rhodamine dyes” value was 2˜3 orders of magnitude. Moreover, in series [6] (setting [8]), the “molecular TPA cross-section σ2” value was 2.5×10^−18 cm^4/GW and the “molecular TPA cross-section σ′2” value was 4.7×10^−46 cm^4/photon/sec.
